Test results taken from the supplement of paper PMC10307832.

Columns and labels:
Experiment in all cases: relative viability (nuclei count vs DMSO), 5 days (fraction); higher = more cells survive
[1] = compound: C[C@@H](N)c1ccc(C(=O)Nc2ccnc3[nH]ccc23)cc1 + Cc1nc(NC(=O)N2CCC[C@H]2C(N)=O)sc1-c1ccnc(C(C)(C)C(F)(F)F)c1 [Alpelisib] (partner 2 µM)
How it was run: (§1)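 After 5 days of treatment, lung cancer cells in 1536-well plates were fixed and stained in a single step (final 0.05% Triton X-100, 1% formaldehyde, 1 ug/ml Hoechst) and their nuclei counted on 4× images. Treatment had been applied by pin tool the day after seeding as one drug alone or as a fixed anchor-drug dose with five library-drug doses (not always all listed) in √10 steps. Relative viability is the nuclei count of treated wells divided by that of vehicle wells, and values are medians of duplicate plates.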

[2] = compound: C1CNCCC1C2=CC(=NN2)C3=CC=NC=C3 + Nc1ncn([C@H]2C[C@H](O)[C@@H](CO)O2)c(=O)n1 [Decitabine] (partner 2 µM)
How it was run: as §1

Tanzisertib + Lapatinib = compound: O[C@H]1CC[C@H](Nc2ncc3nc(Nc4c(F)cc(F)cc4F)n([C@H]4CCOC4)c3n2)CC1 [Tanzisertib] + CS(=O)(=O)CCNCc1ccc(-c2ccc3ncnc(Nc4ccc(OCc5cccc(F)c5)c(Cl)c4)c3c2)o1 [Lapatinib] (partner 2 µM)
How it was run: as §1

[3] = compound: C1CNCCC1C2=CC(=NN2)C3=CC=NC=C3 + N=C(N)NC(=N)NCCc1ccccc1 [Phenformin] (partner 250 µM)
How it was run: as §1

| Cell Line | relative viability ([1]; first compound 0.04 µM) | relative viability ([1]; first compound 0.1265 µM) | relative viability ([1]; first compound 0.4 µM) | relative viability ([1]; first compound 1.265 µM) | relative viability ([1]; first compound 4 µM) | relative viability ([2]; first compound 0.08 µM) | relative viability ([2]; first compound 0.8 µM) | relative viability ([2]; first compound 2.53 µM) | relative viability ([2]; first compound 8 µM) | relative viability (Tanzisertib + Lapatinib; first compound 0.08 µM) | relative viability (Tanzisertib + Lapatinib; first compound 0.253 µM) | relative viability (Tanzisertib + Lapatinib; first compound 0.8 µM) | relative viability (Tanzisertib + Lapatinib; first compound 2.53 µM) | relative viability (Tanzisertib + Lapatinib; first compound 8 µM) | relative viability ([3]; first compound 0.08 µM) | relative viability ([3]; first compound 0.8 µM) | relative viability ([3]; first compound 2.53 µM) | relative viability ([3]; first compound 8 µM) |
| --- | --- | --- | --- | --- | --- | --- | --- | --- | --- | --- | --- | --- | --- | --- | --- | --- | --- | --- |
| NCI-H727 | 0.572 | 0.809 | 0.41 | 0.937 | 0.786 | 0.872 | 0.865 | 0.871 | 0.952 | 0.934 | 0.872 | 0.952 | 0.988 | 0.842 | 0.529 | 0.468 | 0.619 | 0.631 |
| HARA | 0.813 | 0.928 | 0.914 | 0.796 | 0.598 | 0.471 | 0.524 | 0.762 | 0.432 | 0.889 | 0.809 | 0.81 | 0.797 | 0.771 | 0.516 | 0.403 | 0.43 | 0.491 |
| NCI-H2228 | 0.822 | 0.824 | 0.934 | 0.766 | 1.01 | – | – | – | – | 1.27 | 1.15 | 1.13 | 1.23 | 1.13 | 0.328 | 0.368 | 0.286 | 0.359 |
| LCLC-97TM1 | 0.242 | 0.239 | 0.343 | 0.373 | 0.48 | 0.232 | 0.283 | 0.214 | 0.262 | – | 0.92 | 0.696 | 0.568 | 0.863 | 0.328 | 0.511 | 0.437 | 0.396 |
| LC-2-ad | 0.894 | 0.862 | 0.807 | 0.843 | 0.61 | 0.682 | 0.791 | 0.868 | 0.789 | 0.991 | 0.978 | 1.1 | 0.989 | 0.868 | – | 0.676 | 0.639 | 0.612 |
| SK-LU-1 | 1.03 | 0.973 | 0.986 | 0.888 | 0.704 | 0.571 | 0.646 | 0.674 | 0.638 | 1.1 | 0.869 | 0.855 | 0.994 | 0.816 | 0.498 | 0.41 | 0.529 | 0.57 |
| EKVX | 0.897 | 0.95 | 0.887 | 0.895 | 0.748 | 0.291 | – | 0.318 | 0.323 | 0.161 | 0.186 | 0.208 | 0.394 | 0.197 | 0.269 | 0.209 | 0.255 | 0.209 |
| HCC-827 | 0.982 | 1.09 | 1.04 | 1.03 | 0.895 | 0.294 | 0.302 | 0.297 | 0.336 | 0.19 | 0.186 | 0.201 | 0.24 | 0.183 | 0.375 | 0.392 | 0.414 | 0.358 |
| NCI-H650 | 1.19 | 1.15 | 1.06 | – | 0.841 | 0.284 | 0.322 | 0.341 | 0.303 | 0.963 | 1.14 | 1.02 | 1.06 | 0.295 | 0.5 | 0.451 | 0.473 | 0.46 |
| CAL-12T | 1.37 | 1.36 | 1.43 | 1.54 | 0.903 | – | – | – | – | 0.635 | 0.617 | 0.795 | 0.762 | 0.72 | 0.598 | 0.663 | 0.654 | 0.616 |
| NCI-H2342 | – | – | – | – | – | 0.634 | 0.709 | 0.685 | 0.819 | – | – | – | – | – | 0.512 | 0.501 | 0.688 | 0.631 |
| SW 900 | – | – | – | – | – | 0.418 | – | 0.424 | 0.475 | – | – | – | – | – | 0.64 | 0.548 | 0.738 | 0.628 |
| IA-LM | 0.83 | 0.999 | 1.09 | 1.11 | 1.06 | – | – | – | – | 0.855 | 0.732 | – | 1.03 | 1.03 | – | – | – | – |
| EPLC-272H | 1.1 | 0.961 | 1.05 | – | 1.1 | 0.372 | 0.385 | 0.389 | 0.365 | 0.929 | 1.06 | 0.955 | 1.22 | 1.03 | 0.317 | 0.299 | 0.35 | 0.396 |
| A-427 | 1.12 | 1.13 | 1.08 | – | 1.07 | 0.557 | 0.603 | 0.578 | 0.498 | 1.19 | 1.18 | 1.04 | 1.04 | 1.12 | 0.375 | 0.38 | 0.323 | 0.299 |
| NCI-H647 | 1.32 | 1.08 | 0.962 | 0.96 | 0.928 | 0.296 | 0.378 | 0.338 | 0.392 | 1.28 | 1.23 | 1.01 | 1.31 | 0.917 | 0.44 | 0.487 | 0.52 | 0.533 |
| NCI-H1975 | 0.692 | 0.593 | 0.553 | 0.617 | 0.534 | 0.369 | 0.355 | 0.399 | 0.363 | 1.06 | 0.944 | 0.87 | 0.942 | 0.912 | 0.406 | 0.412 | 0.415 | 0.417 |
| NCI-H358 | 0.846 | 0.739 | 0.821 | 0.767 | 0.73 | 0.224 | 0.226 | 0.21 | 0.217 | 0.536 | 0.474 | 0.413 | 0.436 | 0.321 | 0.199 | 0.361 | 0.339 | 0.28 |
| PC-3 [JPC-3] | 1.1 | 1.09 | 1.03 | 1.12 | 0.866 | 0.881 | 0.77 | 0.963 | 0.895 | 0.466 | 0.406 | 0.494 | 0.422 | 0.494 | 0.499 | 0.447 | 0.494 | 0.463 |
| NCI-H1792 | 0.733 | 0.648 | 0.745 | 0.691 | 0.62 | 0.553 | 0.398 | 0.551 | 0.514 | 1.01 | 0.967 | 0.867 | 0.825 | 0.798 | 0.231 | 0.237 | 0.38 | 0.227 |
